Results from patent EP3318253B1, “COMPOSITIONS COMPRISING WNT INHIBITORS FOR TREATING CANCER” (Schmidt-Wolf, Ingo, priority 2010, dated 2012).
Where two headings read alike, the source gives them in different places.

What was measured:
OPM-2 myeloma cells = test: Cell viability by DiOC6 staining, flow cytometry; type: cell-based, human; conditions: for IC50: Homo sapiens, 72 h, OPM-2, 1x10^5 cells cultured three days, various concentrations
Method: (§1) Experiments were performed as reported recently.
(§2) PBL derived from healthy individuals were used as controls. […] ND, not done.

OCI-Ly8 LAM53 = test: Cell viability by DiOC6 staining, flow cytometry; type: cell-based; conditions: Homo sapiens, 72 h; OCI-Ly8 LAM53; 1x10^5 cells cultured three days, various concentrations
Method: as §1, §2

RPMI 8226 = test: Cell viability by DiOC6 staining, flow cytometry; type: cell-based; conditions: Homo sapiens, 72 h, 1x10^5 cells cultured three days, various concentrations
Method: as §1, §2

Raji = test: Cell viability by DiOC6 staining, flow cytometry; type: cell-based; conditions: Homo sapiens, 72 h, 1x10^5 cells cultured three days, various concentrations
Method: as §1, §2

SU-DHL 4 = test: Cell viability by DiOC6 staining, flow cytometry; type: cell-based; conditions: Homo sapiens, 72 h; SU-DHL 4; 1x10^5 cells cultured three days, various concentrations
Method: as §1, §2

U266 = test: Cell viability by DiOC6 staining, flow cytometry; type: cell-based; conditions: Homo sapiens, U-266, 72 h, 1x10^5 cells cultured three days, various concentrations
Method: as §1, §2

PBMC = test: Cell viability by DiOC6 staining, flow cytometry (normal control cells); type: cell-based, human; conditions: for IC50: Homo sapiens, 72 h, PBMC from healthy individuals, three days; for effect on normal PBMC and PBL: result in words
Method: PBMCs were isolated from blood of healthy donors by Ficoll-Hypaque density gradient centrifugation. Blood from buffy coats was mixed 1:2 with PBS/1% BSA (both PAA, Cölbe, Germany) and used for a ficoll gradient (LymphoPrep, PAA, Cölbe, Germany). After the centrifugation at 800 g for 30 minutes, the leukocyte layer was removed and transferred to new tubes. Subsequently, these cells were washed 3 times with PBS/1%BSA and re-suspended in fresh medium, consisting of RPMI medium (PAA, Cölbe, Germany) with 10% fetal calf serum (Invitrogen, Karlsruhe, Germany), 2.5% hepes buffer solution (PAA, Cölbe, Germany), and 1% penicillin/streptomycin (PAA, Cölbe, Germany).
as §1

[1] = tested on: OPM-2, U266 and RPMI 8226 cells; test: Cell viability by DiOC6 staining in myeloma cell lines (mean IC50, combinations); type: cell-based, human; conditions: for IC50: Homo sapiens, mean of the IC50 results in OPM-2, U266 and RPMI 8226 cells; for viability of myeloma cell lines in vitro: result in words
Method: A mean IC50 value in myeloma cells was determined using the mean of the IC50 results determined in OPM-2, U266 and RPMI 8226 cells.
(§3) • Figure 1. […] Data are shown as mean ± SD. • Figure 2. […] Data are shown as mean ± SD. • Figure 3. […] (A) Flow cytometric results. […] Finally, ECL reagent was utilized for detection. • Figure 4C. […] Finally, ECL reagent was utilized for detection. • Figure 5. Effect of EA on viability of myeloma primary cells. […] Results represent data from two separate experiments. Data are shown as mean. • Figure 6. […] (A) Tumor growth and (B) overall survival were measured. Six animals were assayed per group.
Experiments were performed as reported recently. […]

lymphoma cell lines = test: Cell viability by DiOC6 staining in lymphoma cell lines; type: cell-based, human; conditions: result in words
Method: as §1, §2

PBL [2] = test: Cell viability by DiOC6 staining, flow cytometry (normal control cells); conditions: for IC50: Homo sapiens, PBL, 72 h; for effect on normal PBL: result in words
Method: (§4) Peripheral blood mononuclear cells (PBMC) and PBL were isolated from blood samples of healthy volunteers by Ficoll density gradient centrifugation (Lymphoprep, Nycomed, Oslo, Norway).
(§5) 1x10^5 Cells were cultured in 3 ml Medium in 6-well plates. […] The apoptosis assay was performed with 3'3-dihexyloxacarbocyanine iodide (DiOC6) detecting mitochondrial membrane potential in viable cells, and propidium iodide (PI) which binds to DNA in necrotic cells, measured by a fluorescence-activated cell sorter (FACS).
(§6) For FACS analysis, 500µl staining solution containing 80 nM DiOC6 in FACS buffer, consisting of deficient RPMI-medium with 0.5% bovine serum albumin (BSA), was mixed with equal volumes of the cell sample in a glass tube and incubated at 37°C for 15 min. After a washing step with PBS/BSA 1% the cells were re-suspended in 500µl PBS/BSA 1%. After addition of 5µl PI-solution (100µg/ml) the cells were analyzed by FACS. Using this assay, viable cells reveal high fluorescence intensity for DiOC6 and a low expression for PI. In contrary, apoptotic cells show a low expression for DiOC6 and also a low expression for PI (2). Finally, necrotic cells show a low expression for DiOC6 and a high expression for PI.
(§7) PBMC and PBL derived from healthy individuals were used as normal controls. 1x10^5 cells were cultured with each compound using various concentrations for three days. Then cell viability was measured by DIOC6 staining by flow cytometry. Results represent data from two to four separate experiments each.
(§8) PBMC and PBL derived from healthy individuals were used as normal controls. 1x10^5 cells were cultured with each compound using various concentrations for three days. Then cell viability was measured by DIOC6 staining by flow cytometry. Results represent data from 2 to 4 separate experiments each.
(§9) 1x10^5 Cells were cultured in 3 ml Medium in 6-well plates. […] The apoptosis assay was performed with 3' 3-dihexyloxacarbocyanine iodide (DiOC6) detecting mitochondrial membrane potential in viable cells, and propidium iodide (PI) which binds to DNA in necrotic cells, measured by a fluorescence-activated cell sorter (FACS).
(§10) PBL derived from healthy individuals were used as controls. 1x10^5 cells were cultured with each compound using various concentrations for three days. Then cell viability was measured by DIOC6 staining by flow cytometry and IC 50 rates were determined. Results represent data from 2 to 4 separate experiments each.
(§11) PBMC and PBL derived from healthy individuals were used as controls. 1x10^5 cells were cultured with each compound using various concentrations for three days.

PBL [3] = tested on: PBL
Method: as §4, §5, §6, §7, §8, §9, §10, §11

Daudi and Raji cells = test: Cell viability in combination experiments, lymphoma cells; type: cell-based, human; conditions: single drug or combination; data not shown
MPC 11 = test: Cell viability by DiOC6 staining, flow cytometry; type: cell-based; conditions: Mus musculus, 72 h; MPC 11 (murine); three days
Method: Then cell viability was measured by DIOC6 staining in flow cytometry. […] Then cell viability was measured by DIOC6 staining in flow cytometry. Results represent data from two separate experiments. […] Six animals were used in each group. […] Six animals were used in each group.

[4] = tested on: primary myeloma cells derived from bone marrow from patients with multiple myeloma; test: Viability of myeloma primary cells from bone marrow; type: cell-based, human; conditions: incubated three days; preliminary data
Method: Bone marrow samples from patients with myeloma were taken after informed consent, single cell suspensions generated and cells ficolled. Cells were incubated with or without EA for three days and measured for viability.
as §3
Bone marrow samples from patients with myeloma were taken after informed consent, single cell suspensions generated and cells ficolled. Cells were incubated with or without CIC for three days and measured for viability.
Bone marrow samples from patients with myeloma were taken after informed consent, single cell suspensions generated and cells ficolled. Cells were incubated with or without GF for three days and measured for viability.

MPC11 myeloma cells = conditions: gavage, daily dosage 450 µg per animal; for overall survival time: compared to the control group; for animals in which solid tumor nodules formed: treatment group of 6
Method: All animal experiments were done at least in duplicate with groups of 6 BALB/c mice (Charles River, Sulzfeld, Germany). 5x10^5 MCP11 murine myeloma cells were injected per mouse subcutaneously into Balb/c mice. […] Overall survival and tumor growth were measured. Tumor volume was calculated as follows: volume = length x width^2 x 0,52. Animals were killed when tumor volume reached 2000 mm^3.
• Figure 1. […] 1x10^5 cells were cultured with different compounds for three days. The concentration of thalidomide was U266 160µM for U266, RPMI 20µM for RPMI, and OPM 40µM for OPM cells. Then cell viability was measured by DIOC6 staining in flow cytometry. Results represent data from three, two and five separate experiments, respectively. Separate U266 n=3, RPMI n=2, OPM n=5 experiments. Data are shown as mean ± SD. • Figure 2. […] 1x10^5 OPM cells were cultured with the different compounds for three days. The concentration of lenalidomide was 12µM for OPM and 80µM for RPMI cells. Then cell viability was measured by DIOC6 staining in flow cytometry. Results represent data from eight and five OPM n=8, RPMI n=5 separate experiments, respectively. Data are shown as mean ± SD. • Figure 3. […] (A) Flow cytometric results. […] Western Blot analysis for the detection of β-catenin in myeloma cell lines under normal conditions. The myeloma cell lines RPMI 8226, KMS-18 and U266 were analyzed according to their β-catenin expression. • Figure 4B. […] As primary antibodies purified mouse anti-β-catenin and β-actin were used at a dilution of 1:1000 and as secondary antibody served goat anti-mouse IgG-HRP at a dilution of 1:5000. Finally, ECL reagent was utilized for detection. • Figure 4C. […] As primary antibodies Purified mouse anti-β-catenin and β-actin were used at a dilution of 1:1000 and as secondary antibody served goat anti-mouse IgG-HRP at a dilution of 1:5000. Finally, ECL reagent was utilized for detection. • Figure 5. […] Results represent data from two separate experiments. Data are shown as mean. • Figure 6. […] BALB/c mice were injected with 5x10^5 MPC11 myeloma cells subcutaneously. (A) Tumor growth and (B) overall survival were measured. Six animals were assayed per group.
All animal experiments were done at least in duplicate with groups of 6 BALB/c mice (Charles River, Sulzfeld, Germany). 5x10^5 MCP11 murine myeloma cells were injected per mouse subcutaneously into Balb/c mice. Mice were treated orally with 450µg/day CIC and 750 µg lenalidomide/day, respectively. Overall survival and tumor growth were measured. Tumor volume was calculated as follows: volume = length x width^2 x 0,52. Animals were killed when tumor volume reached 2000 mm^3.
• Figure 7. […] 1x10^5 cells were cultured with different compounds for three days. The concentration of thalidomide was U266 160µM for U266, RPMI 20µM for RPMI, and OPM 40µM for OPM cells. Then cell viability was measured by DIOC6 staining in flow cytometry. Results represent data from three, two and five separate experiments, respectively. Separate U266 n=3, RPMI n=2, OPM n=5 experiments. Data are shown as mean ± SD. • Figure 8. […] 1x10^5 OPM cells were cultured with the different compounds for three days. The concentration of lenalidomide was 12µM for OPM and 80µM for RPMI cells. Then cell viability was measured by DIOC6 staining in flow cytometry. Results represent data from eight and five OPM n=8, RPMI n=5 separate experiments, respectively. Data are shown as mean ± SD. • Figure 9. […] (A) Flow cytometric results. (B) We analyzed the effect of CIC on the Wnt/beta catenin pathway by Western blot. • Figure 10A. Western Blot analysis for the detection of β-catenin in myeloma cell lines under normal conditions. The myeloma cell lines RPMI 8226, KMS-18 and U266 were analyzed according to their β-catenin expression. • Figure 10B.

KMS18 = test: Cell viability by DiOC6 staining, flow cytometry; type: cell-based; conditions: Homo sapiens, 72 h, three days
Excerpt: as §2

SMILES | IC50 (OPM-2 myeloma cells) | IC50 (OCI-Ly8 LAM53) | IC50 (RPMI 8226) | IC50 (Raji) | IC50 (SU-DHL 4) | IC50 (U266) | IC50 (PBMC) | effect on normal PBMC and PBL (PBMC) | IC50 [1] | viability of lymphoma cell lines in vitro (lymphoma cell lines) | IC50 (PBL [2]) | effect on normal PBL (PBL [2]) | IC50 (MPC 11) | viability of myeloma cell lines in vitro [1] | growth of primary myeloma cells [4] | overall survival time (MPC11 myeloma cells) | animals in which solid tumor nodules formed (MPC11 myeloma cells) | also measured
Nc1cccc2c1CN(C1CCC(=O)NC1=O)C2=O (racemic) [lenalidomide, (RS)-3-(4-amino-1-oxo-3H-isoindol-2-yl)piperidine-2,6-dione] | 13 µM | > 1000 µM | 2 µM | > 1000 µM | > 1000 µM | 34 µM | > 400 µM | marginal | 16.3 µM | no effect | > 200 µM | marginal | – | – | – | – | – | viability of OPM-2 and RPMI-8226 myeloma cells ([1]; lenalidomide 12µM for OPM, 80µM for RPMI, three days): significant decrease in viability
O=C1CCC(N2C(=O)c3ccccc3C2=O)C(=O)N1 (racemic) [thalidomide, (RS)-2-(2,6-dioxopiperidin-3-yl)-1H-isoindole-1,3(2H)-dione] | 53 µM | > 400 µM | > 400 µM | > 400 µM | > 400 µM | 300 µM | > 400 µM | no effect | > 251 µM | no effect | > 400 µM | – | – | – | – | – | – | viability of OPM-2, U-266 and RPMI-8226 myeloma cells ([1]; thalidomide 160µM for U266, 20µM for RPMI, 40µM for OPM, three days): significant decrease in viability; effect on normal PBL (PBL [3]): no effect
CC(C)C[C@H](NC(=O)[C@H](Cc1ccccc1)NC(=O)c1cnccn1)B(O)O [bortezomib] | – | – | – | – | – | – | – | – | – | – | – | – | – | – | – | – | – | viability of OPM-2 myeloma cells (OPM-2 myeloma cells; bortezomib alone or in combination, data not shown): significant decrease in viability
COc1cccc2c1C(=O)c1c(O)c3c(c(O)c1C2=O)C[C@@](O)(C(=O)CO)C[C@@H]3O[C@H]1C[C@H](N)[C@H](O)[C@H](C)O1 [doxorubicin] | – | – | – | – | – | – | – | – | – | – | – | – | – | – | – | – | – | viability of Daudi and Raji cells (Daudi and Raji cells): significant decrease in viability
COC1=CC(=O)C[C@@H](C)[C@]12Oc1c(Cl)c(OC)cc(OC)c1C2=O [griseofulvin, (2S,6'R)-7-chloro-2',4,6-trimethoxy-6'-methyl-3H,4'H-spiro [1-benzofuran-2,1'-cyclohex[2]ene]-3,4'-dione] | – | 30 µM | 26 µM | 33 µM | 22 µM | 18 µM | 180 µM | – | 22 µM | significantly (p<0.05) decreased | 80 µM | – | 41 µM | significantly decreased the viability | inhibits the growth | significantly (p<0.05) longer | 5 of 6 | –
Cc1cc(CC(C)CC(C)(C)C)n(O)c(=O)c1 (stereo not shown) [piroctone olamine] | 0.7 µM | 0.6 µM | 0.6 µM | 0.6 µM | 0.7 µM | 0.6 µM | – | – | 0.6 µM | significantly (p<0.05) decreased | 18 µM | marginal | 0.8 µM | significantly decreased the viability | inhibits the growth | significantly (p<0.05) longer | 5 of 6 | IC50 (KMS18): 0.6 µM
